Experiments:
Assay in all cases: Cell proliferation assay (Alamar Blue)
Format in all cases: cell-based
HCT-116 = conditions: Homo sapiens, 96 h, HCT-116 cells, four days
H1299 = conditions: Homo sapiens, NCI-H1299, 96 h, H1299 cells, four days
In short: (§1)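 In this dye-reduction proliferation format, cells grown with test compound for about four days receive Alamar Blue, with fluorescence measured roughly four hours later.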

Hs578T = conditions: Homo sapiens, Hs-578T, 96 h, Hs578T cells, four days
In short: as §1

Jurkat = conditions: Homo sapiens, 96 h, Jurkat cells, four days
In short: as §1

PC3 = conditions: Homo sapiens, PC-3, 96 h, PC3 cells, four days
In short: as §1

MiaPaCa = conditions: Homo sapiens, MIA PaCa-2, 96 h, MiaPaCa cells, four days
In short: as §1

A375 = conditions: Homo sapiens, A-375, 96 h, A375 cells, four days
In short: as §1

A549 = conditions: Homo sapiens, 96 h, A549 cells, four days
In short: as §1

HL-60 = conditions: Homo sapiens, 96 h, HL-60 cells, four days
In short: as §1

LNCaP = conditions: Homo sapiens, 96 h, LNCaP cells, four days
In short: as §1

MCF-7 = conditions: Homo sapiens, MCF7, 96 h, MCF-7 cells, four days
In short: as §1

MDAMB231 = conditions: Homo sapiens, MDA-MB-231, 96 h, MDAMB231 cells, four days
In short: as §1

Raji = conditions: Homo sapiens, 96 h, Raji cells, four days
In short: as §1

K-562 = conditions: Homo sapiens, K562, 96 h, K-562 cells, four days
BxPC3 = conditions: Homo sapiens, BXPC-3, 96 h, BxPC3 cells, four days
In short: as §1

COLO205 = conditions: Homo sapiens, COLO 205, 96 h, COLO205 cells, four days
In short: as §1

H460 = conditions: Homo sapiens, NCI-H460, 96 h, H460 cells, four days
In short: as §1

PanC1 = conditions: Homo sapiens, PANC-1, 96 h, PanC1 cells, four days
In short: as §1

SK-OV-3 = conditions: Homo sapiens, 96 h, SK-OV-3 cells, four days
In short: as §1

HT29 = conditions: Homo sapiens, HT-29, 96 h, HT29 cells, four days
In short: as §1

Structure (SMILES) | IC50 (HCT-116) | IC50 (H1299) | IC50 (Jurkat) | IC50 (PC3) | IC50 (MiaPaCa) | IC50 (Hs578T) | also measured
CN(C)CCNc1nc2cc(C(=O)O)ccc2c2cnccc12 | > 10 µM | 3.8 µM | 23.8 µM | 17.9 µM | – | 12.9 µM | –
COC(=O)c1ccc2c(c1)nc(Nc1ccccc1)c1ccncc12 | 15 µM | 13.1 µM | 6.83 µM | 11.3 µM | – | 4.78 µM | –
COC(=O)c1ccc2c(c1)nc(Nc1ccc(F)c(Cl)c1)c1ccncc12 | 3.94 µM | 8.46 µM | 4.25 µM | 9.02 µM | – | 2.62 µM | –
COC(=O)c1ccc2c(c1)nc(Nc1cccc(OC)c1)c1ccncc12 | 15 µM | 7.16 µM | 3.4 µM | 11.3 µM | – | 1.82 µM | –
COC(=O)c1ccc2c(c1)nc(Nc1ccc(F)c(Cl)c1)c1ncncc12 [drawing 295] | > 10 µM | 15.4 µM | 20.3 µM | 15.8 µM | – | 3.7 µM | –
O=C(O)c1ccc2c(c1)nc(Nc1ccc(F)c(Cl)c1)c1ncncc12 [drawing 296] | – | 7.55 µM | 4.29 µM | 18.8 µM | 1.22 µM | 9.7 µM | –
O=C(O)c1ccc2c(c1)nc(Nc1cccc(Cl)c1)c1ccncc12 [drawing 299] | 4.02 µM | 3.08 µM | 2.37 µM | 1.51 µM | 2.74 µM | 0.67 µM | IC50 (A375): 3.95 µM
O=C(O)c1ccc2c(c1)nc(Nc1cc(F)cc(F)c1)c1ncncc12 [drawing 301] | 4.06 µM | 6.62 µM | 2.59 µM | 7.5 µM | 0.85 µM | 5.9 µM | IC50 (A375): 2.63 µM
O=C(O)c1ccc2c(c1)nc(Nc1cccc(F)c1)c1ncncc12 [drawing 302] | 7.1 µM | 7.24 µM | 1.89 µM | 4.71 µM | 3.36 µM | 3.43 µM | IC50 (A375): 5.11 µM
O=C(O)c1ccc2c(c1)nc(Nc1cccc(Cl)c1)c1ncncc12 [drawing 303] | 7.19 µM | 3.01 µM | 0.88 µM | 9.14 µM | 2.09 µM | 11.2 µM | IC50 (A375): 5.45 µM
C#Cc1cccc(Nc2nc3cc(C(=O)O)ccc3c3cncnc23)c1 [drawing 304] | 5.86 µM | 1.55 µM | 1.8 µM | 3.13 µM | 0.67 µM | 2.86 µM | IC50 (A375): 4.12 µM
CNc1ncc2c(n1)c(Nc1ccccc1)nc1cc(C(=O)O)ccc12 [drawing 307] | 2.99 µM | 2.42 µM | 0.73 µM | 3.14 µM | 1.09 µM | 1.84 µM | IC50 (A375): 1.92 µM
O=C(O)c1ccc2c(c1)nc(Nc1cc(F)cc(F)c1)c1ccncc12 [drawing 311] | 4.33 µM | 8.91 µM | 2.41 µM | 10.1 µM | 1.35 µM | 9.09 µM | IC50 (A375): 5.4 µM
O=C(O)c1ccc2c(c1)nc(Nc1ccccc1)c1ccncc12 [drawing 372] | – | – | – | – | – | – | IC50 (A549): 4.16 µM; IC50 (HL-60): 4.86 µM; IC50 (LNCaP): 8.18 µM; IC50 (MCF-7): 10.8 µM; IC50 (MDAMB231): 2.66 µM; IC50 (Raji): 13.7 µM; IC50 (K-562): 4.01 µM
O=C(O)c1ccc2c(c1)nc(Nc1ccc(F)c(Cl)c1)c1ccncc12 [drawing 373] | – | – | – | – | – | – | IC50 (A549): 6.83 µM; IC50 (HL-60): 1.92 µM; IC50 (LNCaP): 4.57 µM; IC50 (MCF-7): 8.24 µM; IC50 (MDAMB231): 6.13 µM; IC50 (Raji): 4.51 µM; IC50 (K-562): 4.95 µM
O=C(O)c1ccc2c(c1)nc(Nc1cccc(F)c1)c1ccncc12 [drawing 375] | – | – | – | – | – | – | IC50 (A549): 16.6 µM
O=C(O)c1ccc2c(c1)nc(Nc1cccc(Cl)c1)c1ccncc12 [drawing 376] | – | – | – | – | – | – | IC50 (A549): 6.59 µM; IC50 (HL-60): 2.64 µM; IC50 (LNCaP): 4.89 µM; IC50 (MCF-7): 17.7 µM; IC50 (Raji): 3.32 µM; IC50 (K-562): 2.99 µM
O=C(O)c1ccc2c(c1)nc(Nc1cccc(Cl)c1)c1ncncc12 [drawing 379] | – | – | – | – | – | – | IC50 (A549): 28.5 µM; IC50 (HL-60): 7.35 µM; IC50 (LNCaP): 1.56 µM; IC50 (MCF-7): 1.79 µM; IC50 (MDAMB231): 1.18 µM; IC50 (K-562): 1.13 µM
Fc1cccc(Nc2nc3cc(-c4nnn[nH]4)ccc3c3cnccc23)c1 [drawing 381] | – | – | – | – | – | – | IC50 (A549): > 50 µM; IC50 (LNCaP): < 0.2 µM; IC50 (MCF-7): > 50 µM; IC50 (MDAMB231): > 50 µM
Fc1cc(Nc2nc3cc(-c4nnn[nH]4)ccc3c3cnccc23)ccc1Cl [drawing 382] | – | – | – | – | – | – | IC50 (A549): > 50 µM; IC50 (LNCaP): 48.2 µM; IC50 (MCF-7): 5.94 µM; IC50 (MDAMB231): > 50 µM; IC50 (K-562): > 50 µM
CNc1ncc2c(n1)c(Nc1ccccc1)nc1cc(C(=O)O)ccc12 [drawing 383] | – | – | – | – | – | – | IC50 (A549): 13.9 µM; IC50 (HL-60): 0.73 µM; IC50 (LNCaP): 1.44 µM; IC50 (MCF-7): 3.4 µM; IC50 (MDAMB231): 2.38 µM; IC50 (Raji): 4.97 µM
Clc1cccc(Nc2nc3cc(-c4nnn[nH]4)ccc3c3cnccc23)c1 [drawing 386] | – | – | – | – | – | – | IC50 (A549): > 50 µM; IC50 (LNCaP): 37.4 µM; IC50 (MCF-7): > 50 µM; IC50 (MDAMB231): > 50 µM; IC50 (K-562): 31.2 µM
N#Cc1cccc(Nc2nc3cc(C(=O)O)ccc3c3cnccc23)c1 [drawing 388] | – | – | – | – | – | – | IC50 (A549): > 50 µM; IC50 (LNCaP): 15.5 µM; IC50 (MCF-7): 41 µM; IC50 (MDAMB231): 28.7 µM; IC50 (K-562): 9.15 µM
O=C(O)c1ccc2c(c1)nc(Nc1ccc(F)c(Cl)c1)c1ccncc12 [drawing 444] | – | – | – | – | – | – | IC50 (BxPC3): 1.5 µM; IC50 (COLO205): 2.2 µM; IC50 (H460): 8.69 µM; IC50 (PanC1): 1.84 µM; IC50 (SK-OV-3): 7.33 µM
O=C(O)c1ccc2c(c1)nc(Nc1cccc(F)c1)c1ccncc12 [drawing 447] | – | – | – | – | – | – | IC50 (HT29): 12.8 µM
O=C(O)c1ccc2c(c1)nc(Nc1cccc(F)c1)c1ncncc12 [drawing 450] | – | – | – | – | – | – | IC50 (BxPC3): 3.48 µM; IC50 (COLO205): 6.16 µM; IC50 (H460): 6.16 µM; IC50 (HT29): 17 µM; IC50 (PanC1): 3.79 µM; IC50 (SK-OV-3): 14.4 µM
O=C(O)c1ccc2c(c1)nc(Nc1cccc(Cl)c1)c1ncncc12 [drawing 451] | – | – | – | – | – | – | IC50 (BxPC3): 1.48 µM; IC50 (COLO205): 8.62 µM; IC50 (H460): 4.1 µM; IC50 (HT29): 13 µM; IC50 (PanC1): 18.7 µM; IC50 (SK-OV-3): 8.97 µM
O=C(O)c1ccc2c(c1)nc(Nc1ccc(Cl)cc1)c1ccncc12 [drawing 456] | – | – | – | – | – | – | IC50 (BxPC3): 6.38 µM; IC50 (COLO205): 1.57 µM; IC50 (H460): 9.1 µM; IC50 (HT29): 26.9 µM; IC50 (PanC1): 25.8 µM; IC50 (SK-OV-3): 15.3 µM
O=C(O)c1ccc2c(c1)nc(Nc1cc(F)cc(F)c1)c1ccncc12 [drawing 459] | – | – | – | – | – | – | IC50 (BxPC3): 1.63 µM; IC50 (COLO205): 3.62 µM; IC50 (H460): 7.53 µM; IC50 (HT29): 16.6 µM; IC50 (PanC1): 24 µM; IC50 (SK-OV-3): 10.1 µM
N#Cc1cccc(Nc2nc3cc(C(=O)O)ccc3c3cnccc23)c1 [drawing 460] | – | – | – | – | – | – | IC50 (BxPC3): 3.62 µM; IC50 (HT29): 41.8 µM; IC50 (PanC1): > 50 µM

Second part, led by results:

IC50 (HCT-116) | IC50 (H1299) | IC50 (Jurkat) | IC50 (PC3) | IC50 (MiaPaCa) | Structure (SMILES) | IC50 (Hs578T) | also measured
> 10 µM | 10.7 µM | 6.52 µM | 17.4 µM | > 10 µM | COc1cccc(Nc2nc3cc(C(=O)O)ccc3c3cnccc23)c1 | 12.9 µM | –
13.3 µM | 6.84 µM | 23.7 µM | 15.4 µM | 7.51 µM | O=C(O)c1ccc2c(c1)nc(Nc1ccccc1)c1ccncc12 [drawing 286] | 14.9 µM | IC50 (A375): 18.4 µM
4.34 µM | 3.08 µM | 2.68 µM | 4.86 µM | 3.06 µM | O=C(O)c1ccc2c(c1)nc(Nc1ccc(F)c(Cl)c1)c1ccncc12 [drawing 291] | 3.31 µM | IC50 (A375): 3.21 µM
– | 8.32 µM | 3.19 µM | 9.23 µM | 6.86 µM | O=C(O)c1ccc2c(c1)nc(Nc1cccc(F)c1)c1ccncc12 [drawing 298] | 5.89 µM | –
6.72 µM | 1.94 µM | 2.53 µM | 8.63 µM | 2.7 µM | O=C(O)c1ccc2c(c1)nc(Nc1ccc(Cl)cc1)c1ccncc12 [drawing 308] | 6.64 µM | IC50 (A375): 4.8 µM
– | 3.65 µM | 2.78 µM | 16.8 µM | 3.85 µM | C#Cc1cccc(Nc2nc3cc(C(=O)O)ccc3c3cnccc23)c1 [drawing 309] | 4.03 µM | IC50 (A375): 7.36 µM
> 10 µM | – | 22 µM | 26.4 µM | > 10 µM | N#Cc1cccc(Nc2nc3cc(C(=O)O)ccc3c3cnccc23)c1 [drawing 312] | 35.6 µM | –
